Reference: patent US8609692B2, “TRPV1 antagonists” (AbbVie Inc., priority 2008, dated 2013)

How the values were obtained:
[1] = Rat telemetry protocol (core body temperature); type: in vivo; details: core body temperature of rats at one hour post dosing (100 μmol/kg, p.o.), relative to vehicle
Method: Male, Sprague Dawley rats, 225-250 grams were anesthetized with Sevoflurane (Abbott Laboratories). Rats were placed on a heating pad and covered with a sterile surgical drape. A ventral midline abdominal incision was made and sterile cotton tip applicators were used to gently move internal tissue and expose the abdominal aorta for implantation of the telemetry catheter (Data Sciences International; TL11M2-050-PXT). Blood flow was temporarily stopped to the lower extremities (5-7 min) with Diffenbach clamps to allow the insertion of the telemetry catheter into the abdominal aorta. Once inserted, a sterile cellulose patch was placed over the catheter/aorta and secured using a small amount of tissue adhesive (Vetbond, 3M). Once catheter placement was complete, the clamps were removed and blood flow was restored to the lower extremities. The transmitter was placed in the intraperitoneal cavity. The transmitter suture rib was sewn into the abdominal sutures to secure it in place. The skin was closed using sterile wound clips and the animal removed from Sevoflurane. Buprenex ([…] s.c.; Phoenix) was administered for post-operative analgesia. Animals were maintained on a heating pad until ambulatory, and then individually housed with food and water ad lib. Surgical staples were removed after 7-10 days post-implantation. Rats were allowed a 2-week post-surgical recovery period before treatment with test compound. Oral dosing (p.o.) was at time zero, with rats receiving a single dose of vehicle (10% EtOH, 20% Tween-80, 70% PEG-400) or a 100 μmol/kg dose of compound dissolved in vehicle. Temperature measurements were recorded every 15 minutes for the duration of the study (24 hours).
The term “core body temperature” as used herein, means the temperature measured in the intraperitoneal cavity.

[2] = biological target: T1, human TRPV1 receptor (hTRPV1) (Homo sapiens, UniProt Q8NER1); assay: Capsaicin activation assay (Ca2+ influx, FLIPR); type: cell-based; details: 0.05 μM capsaicin, 1321N1 cells expressing hTRPV1
T1 construct: expressed in transfected cells
T1 sequence (Q8NER1 whole entry): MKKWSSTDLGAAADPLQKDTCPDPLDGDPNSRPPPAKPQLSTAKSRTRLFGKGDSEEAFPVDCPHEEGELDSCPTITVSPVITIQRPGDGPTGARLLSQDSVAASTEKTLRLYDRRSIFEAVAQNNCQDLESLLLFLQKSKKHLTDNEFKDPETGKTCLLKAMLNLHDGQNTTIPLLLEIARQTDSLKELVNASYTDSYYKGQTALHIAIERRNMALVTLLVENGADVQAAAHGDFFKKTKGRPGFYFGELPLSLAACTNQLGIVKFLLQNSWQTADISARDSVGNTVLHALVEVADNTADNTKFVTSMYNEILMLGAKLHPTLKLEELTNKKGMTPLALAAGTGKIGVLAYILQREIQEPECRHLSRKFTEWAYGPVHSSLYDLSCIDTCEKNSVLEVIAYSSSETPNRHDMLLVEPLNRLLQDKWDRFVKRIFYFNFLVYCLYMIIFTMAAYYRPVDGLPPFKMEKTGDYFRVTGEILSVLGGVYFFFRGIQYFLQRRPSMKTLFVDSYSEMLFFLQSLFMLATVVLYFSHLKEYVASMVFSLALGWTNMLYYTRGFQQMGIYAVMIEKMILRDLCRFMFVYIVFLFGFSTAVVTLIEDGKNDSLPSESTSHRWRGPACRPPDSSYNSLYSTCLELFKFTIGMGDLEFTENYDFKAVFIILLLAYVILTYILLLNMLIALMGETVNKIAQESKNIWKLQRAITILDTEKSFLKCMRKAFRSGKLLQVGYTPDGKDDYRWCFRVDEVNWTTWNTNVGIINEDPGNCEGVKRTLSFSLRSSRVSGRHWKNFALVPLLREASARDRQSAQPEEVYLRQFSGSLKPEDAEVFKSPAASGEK
Method: Dulbecco's modified Eagle medium (D-MEM) (with 4.5 mg/mL glucose) and fetal bovine serum were obtained from Hyclone Laboratories, Inc. (Logan, Utah). Dulbecco's phosphate-buffered saline (D-PBS) (with 1 mg/mL glucose and 3.6 mg/l Na pyruvate, without phenol red), L-glutamine, hygromycin B, and Lipofectamine® were obtained from Life Technologies (Grand Island, N.Y.). G418 sulfate was obtained from Calbiochem-Novabiochem Corp. (San Diego, Calif.). Capsaicin (8-methyl-N-vanillyl-6-nonenamide) was obtained from Sigma-Aldrich, Co. (St. Louis, Mo.). Fluo-4 AM (N-[4-[6-[(acetyloxy)methoxy]-2,7-difluoro-3-oxo-3H-xanthen-9-yl]-2-[2-[2-[bis[2-[(acetyloxy)methoxy]-2-oxyethyl]amino]-5-methyl-phenoxy]ethoxy]phenyl]-N-[2-[(acetyloxy)methoxy]-2-oxyethyl]-glycine, (acetyloxy)methyl ester) was purchased from Molecular Probes (Eugene, Oreg.).
The cDNAs for the human TRPV1 receptor (hTRPV1) were isolated by reverse transcriptase-polymerase chain reaction (RT-PCR) from human small intestine poly A+RNA supplied by Clontech (Palo Alto, Calif.) using primers designed surrounding the initiation and termination codons identical to the published sequences (Hayes et al. Pain 2000, 88, 205-215). The resulting cDNA PCR products were subcloned into pCIneo mammalian expression vector (Promega) and fully sequenced using fluorescent dye-terminator reagents (Prism, Perkin-Elmer Applied Biosystems Division) and a Perkin-Elmer Applied Biosystems Model 373 DNA sequencer or Model 310 genetic analyzer. Expression plasmids encoding the hTRPV1 cDNA were transfected individually into 1321N1 human astrocytoma cells using Lipofectamine®. Forty-eight hours after transfection, the neomycin-resistant cells were selected with growth medium containing 800 μg/mL Geneticin (Gibco BRL). Surviving individual colonies were isolated and screened for TRPV1 receptor activity. Cells expressing recombinant homomeric TRPV1 receptors were maintained at 37° C. in D-MEM containing 4 mM L-glutamine, 300 μg/mL G418 (Cal-biochem) and 10% fetal bovine serum under a humidified 5% CO2 atmosphere.
The functional activity of compounds at the TRPV1 receptor was determined with a Ca^2+ influx assay and measurement of intracellular Ca^2+ levels ([Ca^2+]i). All compounds were tested over an 11-point half-log concentration range. Compound solutions were prepared in D-PBS (4× final concentration), and diluted serially across 96-well v-bottom tissue culture plates using a Biomek 2000 robotic automation workstation (Beckman-Coulter, Inc., Fullerton, Calif.). A 0.2 μM solution of the TRPV1 agonist capsaicin was also prepared in D-PBS. The fluorescent Ca^2+ chelating dye Fluo-4 AM was used as an indicator of the relative levels of [Ca^2+]i in a 96-well format using a Fluorescence Imaging Plate Reader (FLIPR) (Molecular Devices, Sunnyvale, Calif.). Cells were grown to confluency in 96-well black-walled tissue culture plates. Then, prior to the assay, the cells were loaded with 100 μL per well of Fluo-4 AM (2 μM, in D-PBS) for 1-2 hours at 23° C. Washing of the cells was performed to remove extracellular Fluo-4 AM (2×1 mL D-PBS per well), and afterward, the cells were placed in the reading chamber of the FLIPR instrument. 50 μL of the compound solutions were added to the cells at the 10 second time mark of the experimental run. Then, after a 3-minute time delay, 50 μL of the capsaicin solution was added at the, 190 second time mark (0.05 μM final concentration)(final volume=200 μL) to challenge the TRPV1 receptor. Time length of the experimental run was 240 seconds. Fluorescence readings were made at 1 to 5 second intervals over the course of the experimental run. The peak increase in relative fluorescence units (minus baseline) was calculated from the 190 second time mark to the end of the experimental run, and expressed as a percentage of the 0.05 μM capsaicin (control) response. […]

| Molecule | IC50 [2] [nM] | Δ Temp [1] [°C] |
| --- | --- | --- |
| CCC1(CC)C[C@@H](NC(=O)Nc2cccc3c2C[C@H](O)CC3)c2cccc(F)c2O1 [Example 52, N-[(4R)-2,2-diethyl-8-fluoro-3,4-dihydro-2H-chromen-4-yl]-N′-[(7R)-7-hydroxy-5,6,7,8-tetrahydronaphthalen-1-yl]urea] | 20 | 1.2 |
| O=C(Nc1cccc2c1C[C@@H](O)CC2)N[C@@H]1CC2(CCC2)Oc2ccc(F)cc21 [Example 9, N-[(4R)-6-fluoro-3,3′,4,4′-tetrahydro-2′H-spiro[chromene-2,1′-cyclobutan]-4-yl]-N′-[(7S)-7-hydroxy-5,6,7,8-tetrahydronaphthalen-1-yl]urea] | 28 | 0.9 |
| Cn1ncc2c(NC(=O)N[C@@H]3CC(C)(C)Oc4cc(OC(F)(F)F)ccc43)cccc21 [Example 39, N-[(4R)-2,2-dimethyl-7-(trifluoromethoxy)-3,4-dihydro-2H-chromen-4-yl]-N′-(1-methyl-1H-indazol-4-yl)urea] | 25 | 0.7 |
| CCC1(CC)C[C@@H](NC(=O)Nc2cccc3c2C[C@H](O)CC3)c2cc(F)ccc2O1 [Example 54, N-[(4R)-2,2-diethyl-6-fluoro-3,4-dihydro-2H-chromen-4-yl]-N′-[(7R)-7-hydroxy-5,6,7,8-tetrahydronaphthalen-1-yl]urea] | 38 | 1.0 |
| CC1(C)C[C@@H](NC(=O)Nc2cccc3c2C[C@H](O)CC3)c2cc(F)cc(F)c2O1 [Example 18, N-[(4R)-6,8-difluoro-2,2-dimethyl-3,4-dihydro-2H-chromen-4-yl]-N′-[(7R)-7-hydroxy-5,6,7,8-tetrahydronaphthalen-1-yl]urea] | 29 | 1.4 |
| CC1(C)C[C@@H](NC(=O)Nc2cccc3c2C[C@@H](O)CC3)c2ccc(F)c(Cl)c2O1 [Example 109, N-[(4R)-8-chloro-7-fluoro-2,2-dimethyl-3,4-dihydro-2H-chromen-4-yl]-N′-[(7S)-7-hydroxy-5,6,7,8-tetrahydronaphthalen-1-yl]urea] | 21 | 1.2 |
| N-[(4R)-2,2-diethyl-8-fluoro-3,4-dihydro-2H-chromen-4-yl]-N-isoquinolin-8-ylurea [Example 83] | 21 | – |
| CC1(C)C[C@@H](NC(=O)Nc2cccc3c2C[C@@H](O)CC3)c2ccc(Cl)cc2O1 [Example 103, N-[(4R)-7-chloro-2,2-dimethyl-3,4-dihydro-2H-chromen-4-yl]-N′-[(7S)-7-hydroxy-5,6,7,8-tetrahydronaphthalen-1-yl]urea] | 21 | 1.3 |
| O=C(Nc1cccc2c1C[C@H](O)CC2)N[C@@H]1CC(CF)(CF)Oc2cc(F)ccc21 [Example 89, N-[(4R)-7-fluoro-2,2-bis(fluoromethyl)-3,4-dihydro-2H-chromen-4-yl]-N′-[(7R)-7-hydroxy-5,6,7,8-tetrahydronaphthalen-1-yl]urea] | 29 | 1.3 |
| CC1(C)C[C@@H](NC(=O)Nc2cccc3c2C[C@H](O)CC3)c2ccccc2O1 [Example 36, N-[(4R)-2,2-dimethyl-3,4-dihydro-2H-chromen-4-yl]-N′-[(7R)-7-hydroxy-5,6,7,8-tetrahydronaphthalen-1-yl]urea] | 33 | 0.7 |
| O=C(Nc1cccc2c1C[C@@H](O)CC2)N[C@@H]1CC(CF)(CF)Oc2c(F)cccc21 [Example 107, N-[(4R)-8-fluoro-2,2-bis(fluoromethyl)-3,4-dihydro-2H-chromen-4-yl]-N′-[(7S)-7-hydroxy-5,6,7,8-tetrahydronaphthalen-1-yl]urea] | 53 | 0.9 |
| O=C(Nc1cccc2c1C[C@@H](O)CC2)N[C@@H]1CC(CF)(CF)Oc2cc(C(F)(F)F)ccc21 [Example 112, N-[(4R)-2,2-bis(fluoromethyl)-7-(trifluoromethyl)-3,4-dihydro-2H-chromen-4-yl]-N′-[(7S)-7-hydroxy-5,6,7,8-tetrahydronaphthalen-1-yl]urea] | 34 | 1.4 |
| N-[(2R,4R)-2-(fluoromethyl)-2-methyl-7-(trifluoromethyl)-3,4-dihydro-2H-chromen-4-yl]-N-(3-methylisoquinolin-5-yl)urea [Example 127] | 25 | – |

These reach a lower IC50 [2]. Values come first.

| IC50 [2] [nM] | Molecule | Δ Temp [1] [°C] |
| --- | --- | --- |
| 16 | Cn1ncc2c(NC(=O)N[C@@H]3CCOc4c3cccc4C(F)(F)F)cccc21 [Example 59, N-(1-methyl-1H-indazol-4-yl)-N′-[(4R)-8-(trifluoromethyl)-3,4-dihydro-2H-chromen-4-yl]urea] | 0.5 |
| 15 | Cc1cc2c(NC(=O)N[C@@H]3C[C@@](C)(CF)Oc4cc(C(F)(F)F)ccc43)cccc2cn1 [Example 129, N-[(2S,4R)-2-(fluoromethyl)-2-methyl-7-(trifluoromethyl)-3,4-dihydro-2H-chromen-4-yl]-N′-(3-methylisoquinolin-5-yl)urea] | 0.7 |
| 13 | CC1(C)C[C@@H](NC(=O)Nc2cccc3[nH]ncc23)c2ccc(F)cc2O1 [Example 29, N-[(4R)-7-fluoro-2,2-dimethyl-3,4-dihydro-2H-chromen-4-yl]-N′-1H-indazol-4-ylurea] | 1.2 |
| 10 | CCC1(CC)C[C@@H](NC(=O)Nc2cccc3c2C[C@H](O)CC3)c2ccc(Cl)cc2O1 [Example 75, N-[(4R)-7-chloro-2,2-diethyl-3,4-dihydro-2H-chromen-4-yl]-N′-[(7R)-7-hydroxy-5,6,7,8-tetrahydronaphthalen-1-yl]urea] | 1.0 |
| 10 | O=C(Nc1cccc2[nH]ncc12)N[C@@H]1CCOc2c1cccc2C(F)(F)F [Example 63, N-1H-indazol-4-yl-N′-[(4R)-8-(trifluoromethyl)-3,4-dihydro-2H-chromen-4-yl]urea] | 1.0 |
| 9 | CCC1(CC)C[C@@H](NC(=O)Nc2cccc3c2C[C@@H](O)CC3)c2ccc(F)cc2O1 [Example 71, N-[(4R)-2,2-diethyl-7-fluoro-3,4-dihydro-2H-chromen-4-yl]-N′-[(7S)-7-hydroxy-5,6,7,8-tetrahydronaphthalen-1-yl]urea] | 0.5 |
| 9 | CCC1(CC)C[C@@H](NC(=O)Nc2cccc3c2C[C@@H](O)CC3)c2cc(F)ccc2O1 [Example 73, N-[(4R)-2,2-diethyl-6-fluoro-3,4-dihydro-2H-chromen-4-yl]-N′-[(7S)-7-hydroxy-5,6,7,8-tetrahydronaphthalen-1-yl]urea] | 0.9 |
